Source: ChEMBL document CHEMBL1909046, “DrugMatrix in vitro pharmacology data”

Experiments:
[1] = target: Estrogen receptor beta (Homo sapiens, UniProt Q92731); conditions: sf9; note: in other assays of this panel Not Active means under 50% inhibition at 10 µM
[2] = target: T1, Type-2 angiotensin II receptor (Homo sapiens, UniProt P50052); experiment: biochemical; assay type: cell-based, CHO-K1; conditions: cho-k1; note: in other assays of this panel Not Active means under 50% inhibition at 10 µM
T1 sequence (P50052 whole entry): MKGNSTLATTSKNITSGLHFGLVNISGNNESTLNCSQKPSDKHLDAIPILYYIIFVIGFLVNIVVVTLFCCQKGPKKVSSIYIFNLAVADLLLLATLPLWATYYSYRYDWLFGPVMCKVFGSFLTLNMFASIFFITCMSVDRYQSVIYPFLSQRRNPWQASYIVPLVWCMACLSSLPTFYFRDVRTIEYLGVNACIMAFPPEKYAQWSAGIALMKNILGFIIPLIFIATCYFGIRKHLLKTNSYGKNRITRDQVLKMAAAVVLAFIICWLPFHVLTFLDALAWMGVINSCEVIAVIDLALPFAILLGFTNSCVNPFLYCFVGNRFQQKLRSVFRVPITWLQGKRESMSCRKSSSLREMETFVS

[3] = DRUGMATRIX: Purinergic P2X radioligand binding (ligand: [3H] alpha, beta-Methylene-ATP); assay type: cell membranes, Oryctolagus cuniculus, New Zealand albino, Urinary bladder, Membrane; conditions: Not Active = under 50% inhibition at 10 µM
[4] = target: T2, Receptor-type tyrosine-protein phosphatase C (Homo sapiens, UniProt P08575); parameters: species or system Escherichia coli;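 note: inhibition of CD45 enzyme activity measured using DiFMUP as substrate; in other assays of this panel Not Active means under 50% inhibition at 10 µM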
T2 sequence (P08575 whole entry): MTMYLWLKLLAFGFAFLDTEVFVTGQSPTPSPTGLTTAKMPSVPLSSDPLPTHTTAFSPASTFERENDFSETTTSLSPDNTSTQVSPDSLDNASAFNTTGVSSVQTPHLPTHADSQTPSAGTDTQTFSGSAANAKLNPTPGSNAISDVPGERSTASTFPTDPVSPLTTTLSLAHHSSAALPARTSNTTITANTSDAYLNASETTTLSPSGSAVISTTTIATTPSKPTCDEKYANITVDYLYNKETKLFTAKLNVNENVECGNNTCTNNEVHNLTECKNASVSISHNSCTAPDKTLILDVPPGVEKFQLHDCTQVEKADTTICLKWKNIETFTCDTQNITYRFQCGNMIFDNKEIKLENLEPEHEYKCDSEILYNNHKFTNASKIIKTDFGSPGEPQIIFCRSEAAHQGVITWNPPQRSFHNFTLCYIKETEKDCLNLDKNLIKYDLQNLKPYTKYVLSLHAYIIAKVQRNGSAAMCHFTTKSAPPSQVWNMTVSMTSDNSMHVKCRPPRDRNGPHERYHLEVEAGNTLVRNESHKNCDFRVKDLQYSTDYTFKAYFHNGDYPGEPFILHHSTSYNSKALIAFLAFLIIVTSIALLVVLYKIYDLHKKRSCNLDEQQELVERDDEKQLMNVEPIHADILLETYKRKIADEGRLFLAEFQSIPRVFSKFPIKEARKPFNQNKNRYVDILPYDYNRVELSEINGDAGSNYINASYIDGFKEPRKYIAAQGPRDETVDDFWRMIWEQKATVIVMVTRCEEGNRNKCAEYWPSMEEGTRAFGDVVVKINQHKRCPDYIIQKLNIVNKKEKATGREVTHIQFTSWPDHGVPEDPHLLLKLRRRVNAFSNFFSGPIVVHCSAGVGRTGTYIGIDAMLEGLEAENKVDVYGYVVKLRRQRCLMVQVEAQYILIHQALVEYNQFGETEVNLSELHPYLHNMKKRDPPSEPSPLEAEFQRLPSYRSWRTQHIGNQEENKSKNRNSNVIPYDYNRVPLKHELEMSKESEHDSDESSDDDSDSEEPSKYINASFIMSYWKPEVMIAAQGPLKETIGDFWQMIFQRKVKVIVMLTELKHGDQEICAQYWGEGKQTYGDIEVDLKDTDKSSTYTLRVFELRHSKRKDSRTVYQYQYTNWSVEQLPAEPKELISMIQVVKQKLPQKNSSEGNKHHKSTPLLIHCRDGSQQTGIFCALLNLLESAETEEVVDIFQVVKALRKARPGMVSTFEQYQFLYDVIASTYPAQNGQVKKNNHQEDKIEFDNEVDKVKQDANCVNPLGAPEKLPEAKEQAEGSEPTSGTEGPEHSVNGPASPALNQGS

[5] = target: Tyrosine-protein kinase Lck (Homo sapiens, UniProt P06239); experiment: DRUGMATRIX: Protein Tyrosine Kinase, LCK enzyme inhibition (substrate: Poly(Glu:Tyr)); assay type: cell-based, Insect cells; conditions: insect cells; Not Active = under 50% inhibition at 10 µM
Tyrosine-protein kinase Lck, sequence (P06239 whole entry): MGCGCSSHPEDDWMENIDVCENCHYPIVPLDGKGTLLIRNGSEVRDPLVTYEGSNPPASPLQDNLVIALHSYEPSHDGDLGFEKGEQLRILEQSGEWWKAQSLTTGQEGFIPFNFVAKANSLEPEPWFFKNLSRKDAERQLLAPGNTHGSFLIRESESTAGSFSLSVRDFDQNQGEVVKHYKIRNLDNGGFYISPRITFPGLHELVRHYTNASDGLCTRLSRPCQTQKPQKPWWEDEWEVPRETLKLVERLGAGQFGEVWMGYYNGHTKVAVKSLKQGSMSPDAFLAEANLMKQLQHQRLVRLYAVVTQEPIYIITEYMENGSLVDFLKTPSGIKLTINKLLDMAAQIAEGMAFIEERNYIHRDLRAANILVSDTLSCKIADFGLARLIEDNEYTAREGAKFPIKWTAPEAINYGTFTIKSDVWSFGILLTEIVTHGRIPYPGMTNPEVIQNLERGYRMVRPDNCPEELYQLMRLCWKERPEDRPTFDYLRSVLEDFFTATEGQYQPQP

[6] = target: Protein phosphatase 3 catalytic subunit alpha (Homo sapiens, UniProt Q08209); parameters: species or system Escherichia coli;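 note: inhibition of calcineurin (PP2B) enzyme activity, measured with DiFMUP as the substrate; in other assays of this panel Not Active means under 50% inhibition at 10 µM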

Estrogen receptor beta, sequence (Q92731 whole entry): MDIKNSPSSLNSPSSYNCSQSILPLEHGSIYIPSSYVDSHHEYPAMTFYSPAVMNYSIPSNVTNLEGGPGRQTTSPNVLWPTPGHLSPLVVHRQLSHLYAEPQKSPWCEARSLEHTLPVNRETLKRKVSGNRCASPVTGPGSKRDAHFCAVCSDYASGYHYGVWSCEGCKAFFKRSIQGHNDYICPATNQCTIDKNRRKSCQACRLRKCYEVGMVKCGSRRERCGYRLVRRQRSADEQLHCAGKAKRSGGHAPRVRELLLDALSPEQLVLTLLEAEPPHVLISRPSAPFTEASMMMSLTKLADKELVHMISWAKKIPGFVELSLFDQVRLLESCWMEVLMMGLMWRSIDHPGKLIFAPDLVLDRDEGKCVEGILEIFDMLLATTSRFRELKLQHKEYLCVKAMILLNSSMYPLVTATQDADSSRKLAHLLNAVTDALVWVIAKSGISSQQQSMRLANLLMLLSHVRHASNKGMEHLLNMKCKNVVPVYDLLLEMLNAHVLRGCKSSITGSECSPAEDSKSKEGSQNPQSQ

O=c1[nH]c(=O)n([C@H]2C[C@H](O)[C@@H](CO)O2)cc1F [FLOXURIDINE]
Not Active: IC50 [1] | IC50 [2] | IC50 [3] | Ki [3] | IC50 [4] | IC50 [5] | IC50 [6]

O=C(O)CC(O)(CC(=O)O)C(=O)O [CITRIC ACID]
Not Active: IC50 [1] | IC50 [2] | IC50 [3] | Ki [3] | IC50 [4] | IC50 [5] | IC50 [6]

Cc1cc(O)cc(C)c1Cl [CHLOROXYLENOL]
Not Active: IC50 [1] | IC50 [2] | IC50 [3] | Ki [3] | IC50 [4] | IC50 [5] | IC50 [6]

O=C(O)CCCc1cccs1
Not Active: IC50 [1] | IC50 [2] | IC50 [3] | Ki [3] | IC50 [4] | IC50 [5] | IC50 [6]

CCCNC(=O)NS(=O)(=O)c1ccc(Cl)cc1 [CHLORPROPAMIDE]
Not Active: IC50 [1] | IC50 [2] | IC50 [3] | Ki [3] | IC50 [4] | IC50 [5] | IC50 [6]

CC(=O)OC[C@H]1O[C@@H](n2ncc(=O)[nH]c2=O)[C@H](OC(C)=O)[C@@H]1OC(C)=O [AZARIBINE]
Not Active: IC50 [1] | IC50 [2] | IC50 [3] | Ki [3] | IC50 [4] | IC50 [5] | IC50 [6]

NCCCNCCSP(=O)(O)O [AMIFOSTINE]
Not Active: IC50 [1] | IC50 [2] | IC50 [3] | Ki [3] | IC50 [4] | IC50 [5] | IC50 [6]

CC(C)(C)NCC(O)COc1cccc2c1CC(O)C(O)C2 (stereo not given) [NADOLOL]
Not Active: IC50 [1] | IC50 [2] | IC50 [3] | Ki [3] | IC50 [4] | IC50 [5] | IC50 [6]

COc1ccnc(C[S+]([O-])c2nc3ccc(OC(F)F)cc3[nH]2)c1OC (stereo not given) [PANTOPRAZOLE]
Not Active: IC50 [1] | IC50 [2] | IC50 [3] | Ki [3] | IC50 [4] | IC50 [5] | IC50 [6]

CCCCC1=NC2(CCCC2)C(=O)N1Cc1ccc(-c2ccccc2-c2nnn[nH]2)cc1 [IRBESARTAN]
Not Active: IC50 [1] | IC50 [2] | IC50 [3] | Ki [3] | IC50 [4] | IC50 [5] | IC50 [6]

COC(=O)Nc1nc2cc(C(=O)c3ccc(F)cc3)ccc2[nH]1 [FLUBENDAZOLE]
Not Active: IC50 [1] | IC50 [2] | IC50 [3] | Ki [3] | IC50 [4] | IC50 [5] | IC50 [6]

CN(C)CCC=C1c2ccccc2CCc2ccccc21 [AMITRIPTYLINE]
Not Active: IC50 [1] | IC50 [2] | IC50 [3] | Ki [3] | IC50 [4] | IC50 [5] | IC50 [6]

Cc1ccc(C)c(OCCCC(C)(C)C(=O)O)c1 [GEMFIBROZIL]
Not Active: IC50 [1] | IC50 [2] | IC50 [3] | Ki [3] | IC50 [4] | IC50 [5] | IC50 [6]

CNC1=Nc2ccc(Cl)cc2C(c2ccccc2)=[N+]([O-])C1 [CHLORDIAZEPOXIDE]
Not Active: IC50 [1] | IC50 [2] | IC50 [3] | Ki [3] | IC50 [4] | IC50 [5] | IC50 [6]

CC(O)COC[C@H]1O[C@@H]2O[C@H]3[C@H](O)[C@@H](O)[C@@H](O[C@H]4[C@H](O)[C@@H](O)[C@@H](O[C@H]5[C@H](O)[C@@H](O)[C@@H](O[C@H]6[C@H](O)[C@@H](O)[C@@H](O[C@H]7[C@H](O)[C@@H](O)[C@@H](O[C@H]8[C@H](O)[C@@H](O)[C@@H](O[C@H]1[C@H](O)[C@H]2O)O[C@@H]8COCC(C)O)O[C@@H]7COCC(C)O)O[C@@H]6COCC(C)O)O[C@@H]5COCC(C)O)O[C@@H]4COCC(C)O)O[C@@H]3COCC(C)O (stereo partly drawn) [2-HYDROXYPROPYL-BETA-CYCLODEXTRIN]
Not Active: IC50 [1] | IC50 [2] | IC50 [3] | Ki [3] | IC50 [4] | IC50 [5] | IC50 [6]

C[C@]12CC[C@@H]3c4ccc(O)cc4CC[C@H]3[C@@H]1C[C@@H](O)[C@@H]2O [ESTRIOL]
Not Active: IC50 [1] | IC50 [2] | IC50 [3] | Ki [3] | IC50 [4] | IC50 [5] | IC50 [6]

CC1=NN(c2ccccc2)C(=O)C1 [EDARAVONE]
Not Active: IC50 [1] | IC50 [2] | IC50 [3] | Ki [3] | IC50 [4] | IC50 [5] | IC50 [6]

C[C@@H]1C/C=C/C=C/C=C/C=C/[C@H](O[C@@H]2O[C@H](C)[C@@H](O)[C@H](N)[C@@H]2O)C[C@@H]2O[C@](O)(C[C@@H](O)C[C@H]3O[C@@H]3/C=C/C(=O)O1)C[C@H](O)[C@H]2C(=O)O [NATAMYCIN]
Not Active: IC50 [1] | IC50 [2] | IC50 [3] | Ki [3] | IC50 [4] | IC50 [5] | IC50 [6]

C[C@H]1O[C@H](O[C@H]2[C@H](O)[C@@H](O)[C@@H](O[C@H]3[C@H](O)[C@@H](O)C(O)O[C@@H]3CO)O[C@@H]2CO)[C@H](O)[C@@H](O)[C@@H]1N[C@H]1C=C(CO)[C@@H](O)[C@H](O)[C@H]1O (stereo not given in full) [ACARBOSE]
Not Active: IC50 [1] | IC50 [2] | IC50 [3] | Ki [3] | IC50 [4] | IC50 [5] | IC50 [6]

CCc1ccc(CCOc2ccc(CC3SC(=O)NC3=O)cc2)nc1 (stereo not given) [PIOGLITAZONE]
Not Active: IC50 [1] | IC50 [2] | IC50 [3] | Ki [3] | IC50 [4] | IC50 [5] | IC50 [6]

CN1CCN(C(c2ccccc2)c2ccccc2)CC1 [CYCLIZINE]
Not Active: IC50 [1] | IC50 [2] | IC50 [3] | Ki [3] | IC50 [4] | IC50 [5] | IC50 [6]

C[C@]12CC[C@H]3[C@@H](CCC4=CC(=O)CC[C@@H]43)[C@@H]1CC[C@@H]2O [NANDROLONE]
Not Active: IC50 [1] | IC50 [2] | IC50 [3] | Ki [3] | IC50 [4] | IC50 [5] | IC50 [6]

CS(=O)(=O)Nc1ccc([N+](=O)[O-])cc1Oc1ccccc1 [NIMESULIDE]
Not Active: IC50 [1] | IC50 [2] | IC50 [3] | Ki [3] | IC50 [4] | IC50 [5] | IC50 [6]

CN1CCC(=C2c3ccccc3CC(=O)c3sccc32)CC1 [KETOTIFEN]
Not Active: IC50 [1] | IC50 [2] | IC50 [3] | Ki [3] | IC50 [4] | IC50 [5] | IC50 [6]

NC(=O)N1c2ccccc2CC(=O)c2ccccc21 [OXCARBAZEPINE]
Not Active: IC50 [1] | IC50 [2] | IC50 [3] | Ki [3] | IC50 [4] | IC50 [5] | IC50 [6]
